{
  "source": "patent US10770169B2",
  "about": "“Method of providing a treatment to a subject based on a dynamic pathway map” (THE REGENTS OF THE UNIVERSITY OF CALIFORNIA, priority 2010, dated 2020)",
  "key": {"[1]": {"system": "panel of 55 breast cancer cell lines", "experiment": "Cell growth inhibition assay (Cell Titer Glo, 72 h, 9 doses; GI50, TGI, LC50)", "assay_type": "cell-based, human", "details": "value is the negative log10 of mol/L"}, "[2]": {"system": "luminal, basal, claudin-low and ERBB2AMP breast cancer cell lines", "experiment": "Associations of clinically relevant subtypes and response (non-parametric ANOVA or t-test on GI50 ranks)", "assay_type": "cell-based, human", "details": "for Subtype specificity: Table 6, most sensitive subtype, FDR p<0.20", "source_text": "A central premise of this study is that associations between responses and molecular subtypes observed in preclinical cell line analyses will be recapitulated in the clinic in instances where the predictive molecular features in the cell lines are mirrored in human tumors. We established response-subtype associations by using non-parametric ANOVAs to compare […] values across transcriptional and genomics subtypes.\nDifferences between GI50s of the groups were compared with a non-parametric ANOVA or t-test, as appropriate, on the ranks. We combined the p-values for the three sets of tests and used false discovery rate (FDR) to correct for multiple testing. For the three-sample test, we performed a post-hoc analysis on the compounds with a significant class effect by comparing each group to all others to determine which group was most sensitive. The p-values for the post-hoc test were FDR-corrected together. In all cases, FDR p<0.20 was deemed significant. […] Analyses were performed in R."}},
  "data": [
    {"smiles": "Cc1cc(C(C)Nc2ccccc2)c2nc(N3CCOCC3)cc(=O)n2c1", "note": "(stereo not shown) [TGX-221]", "values": [
      {"measurement": "GI50", "setting": "[1]; 600MPE cell line, censored GI50 values", "result": 5.09},
      {"measurement": "GI50", "setting": "[1]; AU565 cell line, censored GI50 values", "result": 5.18},
      {"measurement": "GI50", "setting": "[1]; BT20 cell line, censored GI50 values", "result": 4.77},
      {"measurement": "GI50", "setting": "[1]; BT474 cell line, censored GI50 values", "result": 5.10},
      {"measurement": "GI50", "setting": "[1]; BT483 cell line, censored GI50 values", "result": 5.37},
      {"measurement": "GI50", "setting": "[1]; CAMA1 cell line, censored GI50 values", "result": 5.10},
      {"measurement": "GI50", "setting": "[1]; HCC38 cell line, censored GI50 values", "result": 5.11},
      {"measurement": "GI50", "setting": "[1]; HCC70 cell line, censored GI50 values", "result": 5.98},
      {"measurement": "GI50", "setting": "[1]; HCC202 cell line, censored GI50 values", "result": 5.20},
      {"measurement": "GI50", "setting": "[1]; HCC1187 cell line, censored GI50 values", "result": 5.48},
      {"measurement": "GI50", "setting": "[1]; HCC1395 cell line, censored GI50 values", "result": 5.13},
      {"measurement": "GI50", "setting": "[1]; HCC1419 cell line, censored GI50 values", "result": 5.16},
      {"measurement": "GI50", "setting": "[1]; HCC1428 cell line, censored GI50 values", "result": 4.77},
      {"measurement": "GI50", "setting": "[1]; HCC1954 cell line, censored GI50 values", "result": 4.79},
      {"measurement": "GI50", "setting": "[1]; HCC3153 cell line, censored GI50 values", "result": 4.38},
      {"measurement": "GI50", "setting": "[1]; LY2 cell line, censored GI50 values", "result": 4.78},
      {"measurement": "GI50", "setting": "[1]; MDAMB134VI cell line, censored GI50 values", "result": 4.78},
      {"measurement": "GI50", "setting": "[1]; MDAMB231 cell line, censored GI50 values", "result": 4.61},
      {"measurement": "GI50", "setting": "[1]; MDAMB361 cell line, censored GI50 values", "result": 4.75},
      {"measurement": "GI50", "setting": "[1]; MDAMB436 cell line, censored GI50 values", "result": 4.72},
      {"measurement": "GI50", "setting": "[1]; MDAMB453 cell line, censored GI50 values", "result": 4.81},
      {"measurement": "GI50", "setting": "[1]; MDAMB468 cell line, censored GI50 values", "result": 6.27},
      {"measurement": "GI50", "setting": "[1]; SKBR3 cell line, censored GI50 values", "result": 5.33},
      {"measurement": "GI50", "setting": "[1]; SUM159PT cell line, censored GI50 values", "result": 4.49},
      {"measurement": "GI50", "setting": "[1]; SUM1315MO2 cell line, censored GI50 values", "result": 5.04},
      {"measurement": "GI50", "setting": "[1]; cell line 600MPE", "result": 5.09},
      {"measurement": "GI50", "setting": "[1]; cell line AU565", "result": 5.18},
      {"measurement": "GI50", "setting": "[1]; cell line BT20", "result": 4.77},
      {"measurement": "Subtype specificity", "setting": "[2]", "result": "Luminal"}
    ]},
    {"smiles": "C[C@@H](Oc1cc(-n2cnc3ccc(CN4CCN(C)CC4)cc32)sc1C(N)=O)c1ccccc1C(F)(F)F", "note": "[GSK461364]", "values": [
      {"measurement": "subtype-specific response (sensitivity by transcriptional subtype)", "setting": "[2]; GI50 across subtypes", "result": "more active against basal and claudin-low cell lines"},
      {"measurement": "Subtype specificity", "setting": "[2]", "result": "Basal + Claudin-low"}
    ]}
  ]
}
